Key:
rabbit liver esterase = assay: Decomposition of glutathione derivatives by rabbit liver esterase (physiological stability); assay type: in vitro ADME; settings: BSA/D-PBS pH 7.4, 196-244 μg/ml
Method: (1) Bovine serum albumin (hereinafter referred to as BSA), Dulbecco's phosphate buffered saline (hereinafter referred to as D-PBS), swine liver esterase, and rabbit liver esterase were purchased from Sigma, 6-week old male SD rats were purchased from Nippon SLC, and 12-week old or older male Japanese white rabbits were purchased from Ichikawaya. On the day of the incubation experiment described below, blood was drawn from the animals in the presence of heparin, and plasma was separated therefrom for use. Human plasma was obtained from normal healthy males after obtaining their consent.
(2) The glutathione derivatives described in the Examples and Comparative Examples of the present invention were incubated for a fixed time in an enzyme solution having the following composition. Acetonitrile was added to the reaction mixture to inactivate the enzyme thereby to stop the reaction. The concentration of the glutathione derivatives in the deproteinized supernatant was measured by HPLC. For each time point of the esterase enzyme experiment, the mean values from two measurement or more were determined, and for the rats and rabbits the mean values of plasma samples from three individuals were determined. For some of the experiment data, changes with time of percentages relative to initial concentration of the glutathione derivative are shown in FIGS. 2 to 4.
Swine liver esterase and rabbit liver esterase experiment
30 mg-BSA/ml-D-PBS (pH 7.4): 36 to 45 parts
Swine or rabbit liver esterase/D-PBS: 4-5 parts
10 mg-glutathione derivative/ml-ethanol: one part (the final concentration in the reaction mixture is 196-244 μg/ml)

[1] = system: rat models of suppressed hematopoietic function by 5-FU administration; assay: Recovery of neutrophil counts in rat models of suppressed hematopoietic function by 5-FU (Example 26); assay type: in vivo; settings: 5-FU rats, days 2-10
Excerpt: Regarding the effect of promoting the recovery of neutrophil counts in rat models of suppressed hematopoietic function by 5-fuluorouracil administration, statistical significance was compared to the control group to compare the pharmaceutical composition containing Example 4 of the present invention as an active ingredient with the pharmaceutical composition of the conventional technology of Comparative Example 1 and granulocyte colony-stimulating factor (G-CSF).
(1) Animals used and the keeping condition: Male SD rats, 6-week old, purchased from Nippon SLC were used. The animal feed (manufactured by Oriental Yeast Co., Ltd.) and drinking water (well water treated with 0.4±0.2 ppm hypochlorous acid) were given ad libitum during the period of the experiment. The animals were housed in a hanging-type rat cage (manufactured by Nippon Cage K.K.) and kept at a temperature of 24±2° C. and a humidity of 55±5%.
(2) Creation of rat models of suppressed hematopoietic function by 5-FU administration; Creation of rat models of suppressed hematopoietic function by 5-FU (Kyowa Hakko Kogyo Co. Ltd.) administration was carried out based on the method of Akamatsu et al. (Yakuri to Chiryo(Pharmacology and Therapy), 18. (Suppl. 9), 317-356 (1990)). Thus, on the first day of the experiment, 5-FU at 50 mg/kg-body weight (dosage volume is 1 ml/kg-body weight) or the same amount of physiological saline (manufactured by Fuso Pharmaceuticals Industries, Ltd.) was intraperitoneally administered to the rats described in (1). On days 4, and 7-12, blood was drawn from the jugular vein and the EDTA-2K-treated blood was obtained. The blood was used to determine the neutrophil count using a general chemistry test instrument (Technicon H-1E, manufactured by Bayer-Sankyo K.K.) and the ratio of reticulocytes using a reticulocyte determination instrument (EPICS, XL-MCL, manufactured by Coulter K.K.). Blood was also drawn on day 1 of the experiment, and the values determined for the blood were used as the pre-administration values.
In the physiological saline administration group, no changes in neutrophil count were observed throughout the experiment period, whereas in the 5-FU administration group there was a reduction in neutrophil count with the lowest value observed on day 8 of the experiment, and the neutrophil count was recovered to the value before 5-FU administration or higher on day 10 of the experiment or after. The above results confirmed that rat models of suppressed hematopoietic function can be created by a single intraperitoneal administration of 5-FU at 50 mg/kg-body weight.
(3) Evaluation of Example 4 and Comparative Example 1 in the above model; To the model described in (2), the glutathione derivative of Example 4 combined with the fat emulsion at 10 to 30 mg/kg-body weight/day or the glutathione derivative of Comparative Example 1 dissolved in a physiological saline containing 2.5% hydroxypropyl-β-cyclodextrin at 50 mg/kg-body weight/day was repeatedly administered into the tail vein for 9 days from day 2 to 10 of the experiment. The recombinant human G-CSF formulation (hereinafter referred to as G-CSF, manufactured by Chugai Pharmaceutical Co., Ltd.) as the positive control at 10 μg/kg-body weight/day and the empty fat emulsion as the negative control were administered in a similar manner. […]

[2] = system: rabbit models of suppressed hematopoietic function by CP administration; assay: Recovery of neutrophil counts in rabbit models of suppressed hematopoietic function by cyclophosphamide (Example 29); assay type: in vivo; settings: CP rabbits; 20 mg/kg-body weight/day, days 3 to 7; Example 4 in fat emulsion, Comparative Example 1 in HPCD solution
Excerpt: Regarding the effect of promoting the recovery of neutrophil counts in rabbit models of suppressed hematopoietic function by cyclophosphamide (hereinafter referred to as CP) administration, the pharmaceutical composition comprising the fat emulsion containing the glutathione derivative of Example 4 of the present invention and the pharmaceutical composition of the conventional technology of Comparative Example 1 were compared.
(1) Animals used and the keeping condition: Male Japanese white rabbits, 17-week old, (Kbl:JW) purchased from Kitayama Labes Co., Ltd. were used. The animal feed (LRC4, manufactured by Oriental Yeast Co., Ltd.) and drinking water (well water treated with 0.4±0.2 ppm hypochlorous acid) were given ad libitum during the period of the experiment. The animals were each housed in a hanging-type rat cage (manufactured by Nippon Cage K.K.) and kept at a temperature of 24±2° C. and a humidity of 55±5%.
(2) Creation of rabbit models of suppressed hematopoietic function by CP administration; CP (manufactured by Wako Pure Chemicals Industries, Ltd.) was intravenously administered at 60 mg/kg-body weight/day (dosage volume was 2 ml/kg-body weight) to rabbits described in (1) on day 1 and 2 of the experiment. […] Blood was also drawn before the administration on day 1 of the experiment, and the value determined for the blood was used as the pre-administration value. […]

Structure (SMILES)	Decomposition rate constant by rabbit liver esterase (rabbit liver esterase)	Neutrophil counts relative to the negative control group ([1]; HPCD solution 50 mg/kg-body weight/day iv, significant (5%) on day 12 only)	Neutrophil counts compared to the negative control group [2]	Neutrophil counts relative to the negative control group ([1]; fat emulsion 10 mg/kg-body weight/day iv)	Neutrophil counts relative to the negative control group ([1]; fat emulsion 20 mg/kg-body weight/day iv, days 9 to 11, significance 1% to 0.1%)	Neutrophil counts relative to the negative control group ([1]; fat emulsion 30 mg/kg-body weight/day iv, from day 8, significance 5%-0.1%)
CCCCCCCCOC(=O)[C@H](NC(=O)[C@H](CSCc1ccccc1)NC(=O)CC[C@H](N)C(=O)OCC)c1ccccc1.Cl [Comparative Example 2, Glu(Cys(Bzl)-D-Phg-O(Octyl))-O(Et)hydrochloride, reference compound]	267 10^−4/unit/min	–	–	–	–	–
CCOC(=O)[C@@H](N)CCC(=O)N[C@@H](CSCc1ccccc1)C(=O)N[C@@H](C(=O)OCC)c1ccccc1.Cl [Comparative Example 1, Glu(Cys(Bzl)-D-Phg-O(Et))-O(Et)hydrochloride, reference compound]	–	no changes were observed compared to the negative control group	no changes were observed	–	–	–
CCCCCCCCCCCCCCCCOC(=O)[C@@H](N)CCC(=O)N[C@@H](CSCc1ccccc1)C(=O)N[C@@H](C(=O)OCC)c1ccccc1.Cl [Example 4, Glu(Cys(Bzl)-D-Phg-OEt)-O(Hexadecyl)hydrochloride]	0.836 10^−4/unit/min	–	statistically significant increase in neutrophil counts	No changes were observed	statistically significant increase	statistically significant increase
